Earlier results as cited in patent US7897615B2 (Chugai Sciyaku Kabushiki Kaisha, priority 2003, dated 2011).

Key:
[1] = system: human breast cancer cells
CPT-I muscle (M) isoform = details: muscle isoform of CPT-I

For `CCCCCCCCCCCCCCOc1ccc(C(=O)O)o1` [TOFA, 5-(tetradecyloxy)-2-furoic acid], the antitumor activity [1] is given as “does not show any antitumor activity” and the malonyl-CoA level ([1]; breast carcinoma cells) is given as 60 % of the control.
In the case of `CC(C)(COP(=O)(O)OP(=O)(O)OC[C@H]1O[C@@H](n2cnc3c(N)ncnc32)[C@H](O)[C@@H]1OP(=O)(O)O)[C@@H](O)C(=O)NCCC(=O)NCCSC(=O)CC(=O)O` [Malonyl-CoA], the IC50 (CPT-I muscle (M) isoform) is given as 30 nM.
